In US20260365682A1, “MODULATORS OF TNF-ALPHA ACTIVITY” (Forward Therapeutics, Inc., priority 2022, published 2026):

The compounds below were run against T1, TNF-α (Homo sapiens, UniProt P01375) (assay: TNF-α Induced HEK Blue Cellular Assay (secreted alkaline phosphatase expression, QUANTI-Blue)). Conditions: HEK Blue TNFα reporter cells; TNF-α 100 μg/ml; 24 hrs at 37° C.; inhibition of secreted alkaline phosphatase; read-out: IC50 value.
T1 construct: purchased R&D 210-TA-020/CF
Format: cell-based
Outline: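 Compound was serially diluted from […] to 0.5 nM final, then incubated with 10,000 HEK Blue TNFα reporter cells per well and […] TNF-α for 24 h at 37° C. SEAP output was read by QUANTI-Blue absorbance at 620 nm. Inhibition was background-corrected against DMSO controls with and without stimulation, and IC50 was fitted with a 4-parameter logistic equation.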

T1 sequence (P01375 77-233 limits assumed): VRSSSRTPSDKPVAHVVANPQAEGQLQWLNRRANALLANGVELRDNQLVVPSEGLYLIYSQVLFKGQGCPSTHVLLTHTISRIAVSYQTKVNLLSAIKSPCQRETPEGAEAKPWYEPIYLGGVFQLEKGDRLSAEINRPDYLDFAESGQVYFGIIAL

`[2H]C([2H])([2H])N1C(=O)c2cccc(OC(F)F)c2[C@H]2C[C@@H]1c1nc3ccc(C#Cc4ccc(P(C)(C)=O)nc4)cc3n12` [Example 112, (7R,14R)-1-(difluoromethoxy)-11-((6-(dimethylphosphoryl)pyridin-3-yl)ethynyl)-6-(methyl-d3)-6,7-dihydro-7,14-methanobenzo[f]benzo[4,5]imidazo[1,2-a][1,4]diazocin-5(14H)-one] and `[2H]C([2H])([2H])N1C(=O)c2cccc(OC(F)F)c2[C@H]2C[C@@H]1c1nc3ccc(C#Cc4ccc(P(C)(C)=O)cc4)cc3n12` [Example 106, (7R,14R)-1-(difluoromethoxy)-11-((4-(dimethylphosphoryl)phenyl)ethynyl)-6-(methyl-d3)-6,7-dihydro-7,14-methanobenzo[f]benzo[4,5]imidazo[1,2-a][1,4]diazocin-5(14H)-one] cannot be ordered by IC50: less than 100 nM for the first, less than 100 nM for the second.

`[2H]C([2H])([2H])N1C(=O)c2cccc(OC(F)F)c2[C@H]2C[C@@H]1c1nc3ccc(C#CC4CCN(C(=O)C(C)(C)O)CC4)cc3n12` [Example 186, (7R,14R)-1-(difluoromethoxy)-11-((1-(2-hydroxy-2-methylpropanoyl)piperidin-4-yl)ethynyl)-6-(methyl-d3)-6,7-dihydro-7,14-methanobenzo[f]benzo[4,5]imidazo[1,2-a][1,4]diazocin-5(14H)-one] and `[2H]C([2H])([2H])N1C(=O)c2cccc(OC(F)F)c2[C@H]2C[C@@H]1c1nc3ccc(C#CC4CN(C)C4)cc3n12` [Example 68, (7R,14R)-1-(difluoromethoxy)-6-(methyl-d3)-11-((1-methylazetidin-3-yl)ethynyl)-6,7-dihydro-7,14-methanobenzo[f]benzo[4,5]imidazo[1,2-a][1,4]diazocin-5(14H)-one] cannot be ordered by IC50: less than 100 nM for the first, less than 100 nM for the second.

Compared with `[2H]C([2H])([2H])N1C(=O)c2cccc(OC(F)F)c2[C@H]2C[C@@H]1c1nc3ccc(C#CC4(C)COC4)c(F)c3n12` [Example 146, (7R,14R)-1-(difluoromethoxy)-12-fluoro-6-(methyl-d3)-11-((3-methyloxetan-3-yl)ethynyl)-6,7-dihydro-7,14-methanobenzo[f]benzo[4,5]imidazo[1,2-a][1,4]diazocin-5(14H)-one], `[2H]C([2H])([2H])N1C(=O)c2cccc(OC(F)F)c2[C@H]2C[C@@H]1c1nc3ccc(C#CC4(C)CNC4)cc3n12` [Example 158, (7R,14R)-1-(difluoromethoxy)-6-(methyl-d3)-11-((3-methylazetidin-3-yl)ethynyl)-6,7-dihydro-7,14-methanobenzo[f]benzo[4,5]imidazo[1,2-a][1,4]diazocin-5(14H)-one] is lower in IC50: 100 to 1000 nM for the first, less than 100 nM for the second. The second is the more potent here.

`[2H]C([2H])([2H])N1C(=O)c2cccc(OC(F)F)c2[C@H]2C[C@@H]1c1nc3ccc(C#Cc4nnc(NC(=O)OC(C)(C)C)s4)cc3n12` [Example 261, tert-butyl (5-(((7R,14R)-1-(difluoromethoxy)-6-(methyl-d3)-5-oxo-5,6,7,14-tetrahydro-7,14-methanobenzo[f]benzo[4,5]imidazo[1,2-a][1,4]diazocin-11-yl)ethynyl)-1,3,4-thiadiazol-2-yl)carbamate] and `[2H]C([2H])([2H])N1C(=O)c2cccc(OC(F)F)c2[C@H]2C[C@@H]1c1nc3ccc(C#CC(=O)NC(C)C)cc3n12` [Example 95, 3-((7R,14R)-1-(difluoromethoxy)-6-(methyl-d3)-5-oxo-5,6,7,14-tetrahydro-7,14-methanobenzo[f]benzo[4,5]imidazo[1,2-a][1,4]diazocin-11-yl)-N-isopropylpropiolamide] cannot be ordered by IC50: less than 100 nM for the first, less than 100 nM for the second.

First: [2H]C([2H])([2H])N1C(=O)c2cccc(OC(F)F)c2[C@H]2C[C@@H]1c1nc3ccc(C#CCOC)cc3n12 [Example 42, (7R,14R)-1-(difluoromethoxy)-11-(3-methoxyprop-1-yn-1-yl)-6-(methyl-d3)-6,7-dihydro-7,14-methanobenzo[f]benzo[4,5]imidazo[1,2-a][1,4]diazocin-5(14H)-one]
Second: [2H]C([2H])([2H])N1C(=O)c2cccc(OC(F)F)c2[C@H]2C[C@@H]1c1nc3ccc(C#CCCOC)cc3n12 [Example 77, (7R,14R)-1-(difluoromethoxy)-11-(4-methoxybut-1-yn-1-yl)-6-(methyl-d3)-6,7-dihydro-7,14-methanobenzo[f]benzo[4,5]imidazo[1,2-a][1,4]diazocin-5(14H)-one]
The IC50 of the first is higher: 100 to 1000 nM for the first, less than 100 nM for the second.

First: [2H]C([2H])([2H])N1C(=O)c2cccc(OC(F)F)c2[C@H]2C[C@@H]1c1nc3ccc(C#CC(C)C)cc3n12 [Example 75, (7R,14R)-1-(difluoromethoxy)-6-(methyl-d3)-11-(3-methylbut-1-yn-1-yl)-6,7-dihydro-7,14-methanobenzo[f]benzo[4,5]imidazo[1,2-a][1,4]diazocin-5(14H)-one]
Second: [2H]C([2H])([2H])N1C(=O)c2cccc(OC(F)F)c2[C@H]2C[C@@H]1c1nc3ccc(C#CC(O)CC)cc3n12 (single isomer, unassigned) [Example 208, (7R,14R)-1-(difluoromethoxy)-11-((R or S)-3-hydroxypent-1-yn-1-yl)-6-(methyl-d3)-6,7-dihydro-7,14-methanobenzo[f]benzo[4,5]imidazo[1,2-a][1,4]diazocin-5(14H)-one]
The IC50 of the first is lower: 100 to 1000 nM for the first, 10000 to 30000 nM for the second.

`[2H]C([2H])([2H])N1C(=O)c2cccc(OC(F)F)c2[C@H]2C[C@@H]1c1nc3ccc(C#CCCC(C)(C)O)cc3n12` [Example 93, (7R,14R)-1-(difluoromethoxy)-11-(5-hydroxy-5-methylhex-1-yn-1-yl)-6-(methyl-d3)-6,7-dihydro-7,14-methanobenzo[f]benzo[4,5]imidazo[1,2-a][1,4]diazocin-5(14H)-one] and `[2H]C([2H])([2H])N1C(=O)c2cccc(OC(F)F)c2[C@H]2C[C@@H]1c1nc3ccc(C#CCCCO)cc3n12` [Example 83, (7R,14R)-1-(difluoromethoxy)-11-(5-hydroxypent-1-yn-1-yl)-6-(methyl-d3)-6,7-dihydro-7,14-methanobenzo[f]benzo[4,5]imidazo[1,2-a][1,4]diazocin-5(14H)-one] cannot be ordered by IC50: less than 100 nM for the first, less than 100 nM for the second.

`[2H]C([2H])([2H])N1C(=O)c2cccc(OC(F)F)c2[C@H]2C[C@@H]1c1nc3ccc(C#CC4CN(S(C)(=O)=O)C4)cc3n12` [Example 121, (7R,14R)-1-(difluoromethoxy)-6-(methyl-d3)-11-((1-(methylsulfonyl)azetidin-3-yl)ethynyl)-6,7-dihydro-7,14-methanobenzo[f]benzo[4,5]imidazo[1,2-a][1,4]diazocin-5(14H)-one] and `[2H]C([2H])([2H])N1C(=O)c2cccc(OC(F)F)c2[C@H]2C[C@@H]1c1nc3ccc(C#CC4CC(C)(O)C4)cc3n12` (stereo partly drawn) [Example 177, (7R,14R)-1-(difluoromethoxy)-11-((3-hydroxy-3-methylcyclobutyl)ethynyl)-6-(methyl-d3)-6,7-dihydro-7,14-methanobenzo[f]benzo[4,5]imidazo[1,2-a][1,4]diazocin-5(14H)-one] cannot be ordered by IC50: less than 100 nM for the first, less than 100 nM for the second.

Compared with `CN1C(=O)c2cccc(OC(F)F)c2[C@H]2C[C@@H]1c1nc3ccc(C#Cc4cncnc4)cc3n12` [Example 4, (1R,11R)-18-(difluoromethoxy)-12-methyl-5-[2-(pyrimidin-5-yl)ethynyl]-2,9,12-triazapentacyclo[9.8.1.0^{2,10}.0^{3,8}.0^{14,19}]icosa-3(8),4,6,9,14(19),15,17-heptaen-13-one], `[2H]C([2H])([2H])N1C(=O)c2cccc(OC(F)F)c2[C@H]2C[C@@H]1c1nc3ccc(C#CC(O)C(F)(F)F)cc3n12` (single isomer, unassigned) [Example 200, (7R,14R)-1-(difluoromethoxy)-6-(methyl-d3)-11-((S or R)-4,4,4-trifluoro-3-hydroxybut-1-yn-1-yl)-6,7-dihydro-7,14-methanobenzo[f]benzo[4,5]imidazo[1,2-a][1,4]diazocin-5(14H)-one] is higher in IC50: less than 100 nM for the first, 100 to 1000 nM for the second.

First: [2H]C([2H])([2H])N1C(=O)c2cccc(OC(F)F)c2[C@H]2C[C@@H]1c1nc3ccc(C#CC4(C(F)F)CC4)cc3n12 [Example 188, (7R,14R)-1-(difluoromethoxy)-11-((1-(difluoromethyl)cyclopropyl)ethynyl)-6-(methyl-d3)-6,7-dihydro-7,14-methanobenzo[f]benzo[4,5]imidazo[1,2-a][1,4]diazocin-5(14H)-one]
Second: [2H]C([2H])([2H])N1C(=O)c2cccc(OC(F)F)c2[C@H]2C[C@@H]1c1nc3ccc(C#CCC(O)C(C)O)cc3n12 (single isomer, unassigned) [Example 243, (7R,14R)-1-(difluoromethoxy)-11-((4R or 4S,5S or 5R)-4,5-dihydroxyhex-1-yn-1-yl)-6-(methyl-d3)-6,7-dihydro-7,14-methanobenzo[f]benzo[4,5]imidazo[1,2-a][1,4]diazocin-5(14H)-one]
The IC50 of the first is higher: 100 to 1000 nM for the first, less than 100 nM for the second.

In the case of `[2H]C([2H])([2H])N1C(=O)c2cccc(OC(F)F)c2[C@H]2C[C@@H]1c1nc3ccc(C#CC(O)CC(C)(C)O)cc3n12` (single isomer, unassigned) [Example 222, (7R,14R)-1-(difluoromethoxy)-11-((R or S)-3,5-dihydroxy-5-methylhex-1-yn-1-yl)-6-(methyl-d3)-6,7-dihydro-7,14-methanobenzo[f]benzo[4,5]imidazo[1,2-a][1,4]diazocin-5(14H)-one], the IC50 is reported as less than 100 nM.

Same assay, conditions: IC50 value, HEK Blue TNFα reporter cells; TNF-α 100 μg/ml; 24 hrs at 37° C.; inhibition of secreted alkaline phosphatase

For `[2H]C([2H])([2H])N1C(=O)c2cccc(OC(F)F)c2[C@H]2C[C@@H]1c1nc3ccc(C#CC4CN(CC(F)F)C4)cc3n12` [Example 198, (7R,14R)-11-((1-(2,2-difluoroethyl)azetidin-3-yl)ethynyl)-1-(difluoromethoxy)-6-(methyl-d3)-6,7-dihydro-7,14-methanobenzo[f]benzo[4,5]imidazo[1,2-a][1,4]diazocin-5(14H)-one], the IC50 was 10000 to 30000 nM.
